Test results as given in patent publication US20240091247A1, “INHIBITOR FOR CHRONIC MYELOID LEUKEMIA STEM CELLS” (Ohara Pharmaceutical Co., Ltd., priority 2021, published 2024).

Assays:
[1] = system: stem cells or progenitor cells of CML; assay: Mouse model of CML (recipient mice engrafted with GFP positive MIG-BCR-ABL1 myeloid cells); type: in vivo; settings: after 12 days of administration, OR21 1.35 mg/kg i.p., IM 150 mg/kg oral
Experimental: Recipient mice were engrafted with myeloid cells to which GFP positive MIG-BCR-ABL1 had been introduced and used as CML models. […] After administration of the drugs to each group for 12 days, the GFP positive cells in peripheral blood, bone marrow, and spleen were determined. Inter-group comparisons were performed by a significance test of Mann-Whitney U-tests (p<0.05, **p<0.01) in FIG. 1.

LXN [2] = assay: LXN protein expression by Western blotting, OR21 with TKI (FIG. 5); type: cell-based; settings: K562 and KBM5 cells, 100 nM OR21, 1000 nM imatinib, 2.5 nM dasatinib, 1, 2 and 3 days, corrected with β actin
Experimental: (§1) K562 cells (cell lines derived from CML) were purchased from JCRB cell bank and KBM5 cells (cell lines derived from CML) were provided by Dr. M. Beran (MD Anderson Cancer Center, University of Texas). These calls were cultured in an RPMI 1640 medium containing 10% fetal bovine serum (FBS) and 1% penicillin-streptomycin at 37° C. in atmosphere of 5% CO2.
0, 24, and 48 hours after the cell seeding, 100 nM OR21, a DNA methyltransferase inhibitor, was added. […] After the culture, the cells were collected, dissolved, and determined for protein expression level of LXN by Western blotting. […] The expression level of LXN shown in FIG. 5 represents each expression level of the cases when the LXN expression under each condition was corrected with β actin and the expression level in the control was taken as 1.0.

LXN [3] = assay: LXN gene expression by microarray in K562 cells; type: cell-based; settings: 100 nM OR21, 1000 nM imatinib
Experimental: as §1
(§2) After the culture, mRNA was collected and gene expression was comprehensively analyzed by microarrays.

stem cells of CML = assay: Limiting dilution assay in secondarily transplanted mice; type: in vivo; settings: peripheral blood, 16 weeks after secondary transplantation; compared to vehicle or IM donor group
Experimental: Then, engraftment of GFP positive cells in the peripheral blood (PB) at 16 weeks after the secondary transplantation was determined and analyzed by limiting dilution assay. […] The bottom row of the table indicates the cell number required to be engrafted. The larger numbers mean that it is more difficult to engraft. It is noted that engraftment of GFP positive cells is defined to have a GFP positive rate of 0.5% or more in the peripheral blood of recipient mice. […] The higher plots or slope of the lines mean that it is more difficult to engraft.

LXN [4] = assay: LXN gene expression by microarray in KBM5 cells; type: cell-based; settings: 100 nM OR21, 1000 nM imatinib
Experimental: as §1, §2

DNMT1 = DNMT1 expression in K562 cells (FIG. 6); type: cell-based; settings: 100 nM azacytidine, decitabine or cytarabine
LXN [5] = assay: LXN protein expression by Western blotting in K562 cells, azacytidine/decitabine/cytarabine with imatinib (FIG. 6); type: cell-based; settings: 100 nM azacytidine, decitabine or cytarabine, 1000 nM imatinib
Experimental: 0, 24, and 48 hours after the cell seeding, azacytidine (100 nM), decitabine (100 nM), or cytarabine (100 nM) was added to K562 cell culture, cultured for 2 days. […] After the culture, the cells were collected, dissolved, and determined for protein expression level of LXN by Western blotting. The expression level of LXN shown in FIG. 6 represents each expression level of the cases when the LXN expression under each condition was corrected with β actin and the expression level in the control was taken as 1.0.

Question: How did the “linage-negative cells (Lin-) in bone marrow” value [1] turn out when `CC[Si](CC)(CC)OC[C@H]1O[C@@H](n2cnc(N)nc2=O)C[C@@H]1O` [OR21] was run?
Answer: Its value is “decreased”.

Question: And the “Lin-Sca-1+c-Kit+ (LSK) cells” value ([1]; bone marrow)?
Answer: The value was “decreased”.

Question: And the “GFP positive cell rate” value ([1]; peripheral blood, bone marrow and spleen, compared to vehicle group)?
Answer: The value was “significant decrease”.

Question: What about the “protein expression level of LXN” value (LXN [2]) of the same molecule?
Answer: The value was “increase in the protein expression level of LXN over time”.

Question: And the “gene expression level of LXN in respect of the control” value (“gene expression level of LXN” for short) (LXN [3])?
Answer: Its value is 4.5 times.

Question: What about the “GFP positive cells in mice of the secondary transplantation” value (stem cells of CML) of the same molecule?
Answer: Its value is “significantly reduced”.

Question: What about the “gene expression level of LXN” value (LXN [4]) of the same molecule?
Answer: The value was 3.4 times.

Question: For `Nc1ncn([C@@H]2O[C@H](CO)[C@@H](O)[C@H]2O)c(=O)n1` [azacytidine, 4-amino-1-β-D-ribofuranosyl-s-triazin-2(1H)-one], which “expression of DNMT1” value (DNMT1) is on record?
Answer: Its value is “reduced”.

Question: How did the “protein expression of LXN” value (LXN [5]) turn out when `Nc1ccn([C@@H]2O[C@H](CO)[C@@H](O)[C@@H]2O)c(=O)n1` [cytarabine] was run?
Answer: The value was “no increase”.

Question: And the “expression of DNMT1” value (DNMT1)?
Answer: Its value is “did not exhibit inhibitory effect”.

Question: Which “protein expression of LXN” value (LXN [5]) does the source give for `Nc1ncn([C@H]2C[C@H](O)[C@@H](CO)O2)c(=O)n1` [decitabine, 4-amino-1-(2-deoxy-β-D-erythro-pentofuranosyl)-1,3,5-triazin-2(1H)-one] here?
Answer: The value was “increased”.

Question: And the “expression of DNMT1” value (DNMT1)?
Answer: Its value is “reduced”.

Question: `Cc1ccc(NC(=O)c2ccc(CN3CCN(C)CC3)cc2)cc1Nc1nccc(-c2cccnc2)n1` [imatinib] was tested. Which “protein expression level of LXN” value (LXN [2]) did it give?
Answer: Its value is “almost no effect”.

Question: What about the “gene expression level of LXN” value (LXN [3]) of the same molecule?
Answer: The value was 1.3 times.

Question: And the “gene expression level of LXN” value (LXN [4])?
Answer: Its value is 1.9 times.
